This note sets out measurements from patent publication US7973061B2, “Anaplastic lymphoma kinase modulators and methods of use” (Exelixis, Inc., priority 2004, dated 2011).

In the assay the target is T1, ALK (baculovirus expressed human ALK kinase domain F1098-K1410) (Homo sapiens, UniProt Q9UM73).
T1 construct: human ALK kinase domain F1098-K1410; made in house
The assay is described as follows: biochemical. The following applies: 1 μM ATP, 4 μM poly-AEKY, 12 nM ALK, 2 hours at ambient temperature; read-out: ALK IC50. An outline of the steps:
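Inhibitors were tested at 10 concentrations, and IC50 was derived from a sigmoidal fit (Min, Max, Hill slope). Kinase activity was measured as percent ATP left after a 2 h reaction at room temperature, detected by luciferase-luciferin chemiluminescence. The ATP level was set close to KM for the ALK kinase domain F1098-K1410.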

As usually defined, the IC50 is the concentration that inhibits the measured activity by half.

Molecules are shown by their SMILES.

T1 sequence (Q9UM73 1098-1410): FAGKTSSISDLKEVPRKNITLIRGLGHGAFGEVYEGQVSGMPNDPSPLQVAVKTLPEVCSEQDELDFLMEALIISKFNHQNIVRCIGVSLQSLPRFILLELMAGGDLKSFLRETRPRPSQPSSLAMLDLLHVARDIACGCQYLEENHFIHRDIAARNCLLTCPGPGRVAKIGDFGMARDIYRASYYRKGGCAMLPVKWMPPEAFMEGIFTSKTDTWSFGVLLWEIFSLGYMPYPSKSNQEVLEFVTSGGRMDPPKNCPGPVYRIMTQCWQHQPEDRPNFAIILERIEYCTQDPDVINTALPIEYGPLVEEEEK

With `CC(C)(C)CCNC(=O)c1csc(CNC(=O)COc2ccc(OC(F)(F)F)cc2)n1` [Entry 175, N-(3,3-dimethylbutyl)-2-({[({4-[(trifluoromethyl)oxy]phenyl}oxy)acetyl]amino}methyl)-1,3-thiazole-4-carboxamide], the IC50 fell in the range of 50 to 500 nM.

`COCCCNC(=O)c1csc(CNC(=O)COc2ccc(OC(F)(F)F)cc2)n1` [Entry 269, N-[3-(methyloxy)propyl]-2-({[({4-[(trifluoromethyl)oxy]phenyl}oxy)acetyl]amino}methyl)-1,3-thiazole-4-carboxamide]: the IC50 fell in the range of 500 to 2000 nM.

As to `O=C(COc1ccc(OC(F)(F)F)cc1)NCc1nc(C(=O)NCCc2c[nH]c3ccccc23)cs1` [Entry 45, N-[2-(1H-indol-3-yl)ethyl]-2-({[({4-[(trifluoromethyl)oxy]phenyl}oxy)acetyl]amino}methyl)-1,3-thiazole-4-carboxamide], the IC50 was in the range of 50 to 500 nM.

Regarding `CC(C)(C)OC(=O)NCCCCCNC(=O)c1csc(CNC(=O)COc2ccc(OC(F)(F)F)cc2)n1` [Entry 123, 1,1-dimethylethyl [5-({[2-({[({4-[(trifluoromethyl)oxy]phenyl}oxy)acetyl]amino}methyl)-1,3-thiazol-4-yl]carbonyl}amino)pentyl]carbamate], the IC50 was in the range of 50 to 500 nM.

For `O=C(COc1ccc(OC(F)(F)F)cc1)NCc1nc(C(=O)N2CCc3ccccc3C2)cs1` [Entry 139, N-{[4-(3,4-dihydroisoquinolin-2(1H)-ylcarbonyl)-1,3-thiazol-2-yl]methyl}-2-({4-[(trifluoromethyl)oxy]phenyl}oxy)acetamide], the IC50 lay in the range of 50 to 500 nM.

For the compound `COc1cc(CCNC(=O)c2csc(CNC(=O)COc3ccc(OC(F)(F)F)cc3)n2)cc(OC)c1` [Entry 30, N-{2-[3,5-bis(methyloxy)phenyl]ethyl}-2-({[({4-[(trifluoromethyl)oxy]phenyl}oxy)acetyl]amino}methyl)-1,3-thiazole-4-carboxamide], the IC50 lay in the range of 50 to 500 nM.

With `COc1ccccc1CNC(=O)c1csc(CNC(=O)COc2ccc(C(C)C)cc2)n1` [Entry 118, 2-{[({[4-(1-methylethyl)phenyl]oxy}acetyl)amino]methyl}-N-{[2-(methyloxy)phenyl]methyl}-1,3-thiazole-4-carboxamide], the IC50 was in the range of 50 to 500 nM.

On to `CSc1ccccc1CNC(=O)c1coc(CNC(=O)COc2ccc(OC(F)(F)F)cc2)n1` [Entry 186, N-{[2-(methylthio)phenyl]methyl}-2-({[({4-[(trifluoromethyl)oxy]phenyl}oxy)acetyl]amino}methyl)-1,3-oxazole-4-carboxamide], for which the IC50 is 50 to 500 nM.

On to `CCc1ccc(OCC(=O)NCc2nc(C(=O)NCCc3cccc(Cl)c3)cs2)cc1` [Entry 111, N-[2-(3-chlorophenyl)ethyl]-2-[({[(4-ethylphenyl)oxy]acetyl}amino)methyl]-1,3-thiazole-4-carboxamide], for which the IC50 fell in the range of 50 to 500 nM.

Turning to `O=C(COc1ccc(OC(F)(F)F)cc1)NCc1nc(C(=O)NCc2ccccc2OC(F)(F)F)cs1` [Entry 57, N-({2-[(trifluoromethyl)oxy]phenyl}methyl)-2-({[({4-[(trifluoromethyl)oxy]phenyl}oxy)acetyl]amino}methyl)-1,3-thiazole-4-carboxamide], the IC50 is 50 to 500 nM.

Turning to `CC(C)CCNC(=O)c1csc(CNC(=O)COc2ccc(OC(F)(F)F)cc2)n1` [Entry 138, N-(3-methylbutyl)-2-({[({4-[(trifluoromethyl)oxy]phenyl}oxy)acetyl]amino}methyl)-1,3-thiazole-4-carboxamide], the IC50 was in the range of 50 to 500 nM.

Turning to `COc1ccccc1CNC(=O)c1csc(CNC(=O)C/C=C/c2ccccc2)n1` [Entry 284, N-{[2-(methyloxy)phenyl]methyl}-2-({[(3E)-4-phenylbut-3-enoyl]amino}methyl)-1,3-thiazole-4-carboxamide], the IC50 is 500 to 2000 nM.

Turning to `O=C(COc1ccc(OC(F)(F)F)cc1)NCc1nc(C(=O)N2Cc3ccccc3C2)cs1` [Entry 3, N-{[4-(1,3-dihydro-2H-isoindol-2-ylcarbonyl)-1,3-thiazol-2-yl]methyl}-2-({4-[(trifluoromethyl)oxy]phenyl}oxy)acetamide], the IC50 is below 50 nM.

As for `CCOc1ccccc1CNC(=O)c1coc(CNC(=O)COc2ccc(OC(F)(F)F)cc2)n1` [Entry 235, N-{[2-(ethyloxy)phenyl]methyl}-2-({[({4-[(trifluoromethyl)oxy]phenyl}oxy)acetyl]amino}methyl)-1,3-oxazole-4-carboxamide], the IC50 was 500 to 2000 nM.

As to `CCCCCCNC(=O)c1csc(CNC(=O)COc2ccc(OC(F)(F)F)cc2)n1` [Entry 113, N-hexyl-2-({[({4-[(trifluoromethyl)oxy]phenyl}oxy)acetyl]amino}methyl)-1,3-thiazole-4-carboxamide], the IC50 was 50 to 500 nM.

On to `C[C@H](NC(=O)c1csc(CNC(=O)COc2ccc(OC(F)(F)F)cc2)n1)C(C)(C)C` [Entry 102, 2-({[({4-[(trifluoromethyl)oxy]phenyl}oxy)acetyl]amino}methyl)-N-[(1S)-1,2,2-trimethylpropyl]-1,3-thiazole-4-carboxamide], for which the IC50 fell in the range of 50 to 500 nM.

Regarding `O=C(COc1ccc(OC(F)(F)F)cc1)NCc1nc(C(=O)NCC2c3ccccc3CCc3ccccc32)co1` [Entry 38, N-(10,11-dihydro-5H-dibenzo[a,d]cyclohepten-5-ylmethyl)-2-({[({4-[(trifluoromethyl)oxy]phenyl}oxy)acetyl]amino}methyl)-1,3-oxazole-4-carboxamide], the IC50 is 50 to 500 nM.

Turning to `CCc1ccc(NC(=O)NCc2nc(C(=O)NCc3cccc(OC)c3OC)cs2)cc1` [Entry 134, N-{[2,3-bis(methyloxy)phenyl]methyl}-2-[({[(4-ethylphenyl)amino]carbonyl}amino)methyl]-1,3-thiazole-4-carboxamide], the IC50 was in the range of 50 to 500 nM.

As to `Cc1ccc([C@H](C)NC(=O)c2csc(CNC(=O)COc3ccc(OC(F)(F)F)cc3)n2)cc1` [Entry 162, N-[(1S)-1-(4-methylphenyl)ethyl]-2-({[({4-[(trifluoromethyl)oxy]phenyl}oxy)acetyl]amino}methyl)-1,3-thiazole-4-carboxamide], the IC50 was 50 to 500 nM.

Take `Cc1cccc(CCNC(=O)c2coc(CNC(=O)COc3ccc(OC(F)(F)F)cc3)n2)c1` [Entry 151, N-[2-(3-methylphenyl)ethyl]-2-({[({4-[(trifluoromethyl)oxy]phenyl}oxy)acetyl]amino}methyl)-1,3-oxazole-4-carboxamide]: the IC50 was 50 to 500 nM.

Take `O=C(COc1ccc(OC(F)(F)F)cc1)NCc1nc(C(=O)NCc2ccncc2)cs1` [Entry 285, N-(pyridin-4-ylmethyl)-2-({[({4-[(trifluoromethyl)oxy]phenyl}oxy)acetyl]amino}methyl)-1,3-thiazole-4-carboxamide]: the IC50 lay in the range of 500 to 2000 nM.

Turning to `CC(C)(C)c1ccc(OCC(=O)NCc2nc(C(=O)NCCc3cccc(Cl)c3)cs2)cc1` [Entry 67, N-[2-(3-chlorophenyl)ethyl]-2-{[({[4-(1,1-dimethylethyl)phenyl]oxy}acetyl)amino]methyl}-1,3-thiazole-4-carboxamide], the IC50 fell in the range of 50 to 500 nM.

Turning to `CC(CNC(=O)c1csc(CNC(=O)COc2ccc(OC(F)(F)F)cc2)n1)c1ccccc1` (stereo not shown) [Entry 7, N-(2-phenylpropyl)-2-({[({4-[(trifluoromethyl)oxy]phenyl}oxy)acetyl]amino}methyl)-1,3-thiazole-4-carboxamide], the IC50 is below 50 nM.

`COc1cccc(CNC(=O)c2csc(CNC(=O)c3cccnc3Oc3ccc(Cl)cc3)n2)c1OC` [Entry 144, N-({4-[({[2,3-bis(methyloxy)phenyl]methyl}amino)carbonyl]-1,3-thiazol-2-yl}methyl)-2-[(4-chlorophenyl)oxy]pyridine-3-carboxamide]: the IC50 was 50 to 500 nM.

Take `O=C(COc1ccc(OC(F)(F)F)cc1)NCc1nc(C(=O)NCc2ccc(F)c(Cl)c2)cs1` [Entry 191, N-[(3-chloro-4-fluorophenyl)methyl]-2-({[({4-[(trifluoromethyl)oxy]phenyl}oxy)acetyl]amino}methyl)-1,3-thiazole-4-carboxamide]: the IC50 lay within 50 to 500 nM.

As for `CC(NC(=O)c1csc(CNC(=O)COc2ccc(OC(F)(F)F)cc2)n1)c1ccccc1` (stereo not shown) [Entry 108, N-(1-phenylethyl)-2-({[({4-[(trifluoromethyl)oxy]phenyl}oxy)acetyl]amino}methyl)-1,3-thiazole-4-carboxamide], the IC50 was in the range of 50 to 500 nM.

With `CC(C)[C@H](C)NC(=O)c1csc(CNC(=O)COc2ccc(OC(F)(F)F)cc2)n1` [Entry 153, N-[(1S)-1,2-dimethylpropyl]-2-({[({4-[(trifluoromethyl)oxy]phenyl}oxy)acetyl]amino}methyl)-1,3-thiazole-4-carboxamide], the IC50 was 50 to 500 nM.

For the compound `C#CC(CC)(CC)NC(=O)c1csc(CNC(=O)COc2ccc(OC(F)(F)F)cc2)n1` [Entry 147, N-(1,1-diethylprop-2-yn-1-yl)-2-({[({4-[(trifluoromethyl)oxy]phenyl}oxy)acetyl]amino}methyl)-1,3-thiazole-4-carboxamide], the IC50 was in the range of 50 to 500 nM.

For the compound `O=C(COc1ccc(OC(F)(F)F)cc1)NCc1nc(C(=O)NCc2c(Cl)cccc2Oc2ccccc2)cs1` [Entry 163, N-{[2-chloro-6-(phenyloxy)phenyl]methyl}-2-({[({4-[(trifluoromethyl)oxy]phenyl}oxy)acetyl]amino}methyl)-1,3-thiazole-4-carboxamide], the IC50 lay within 50 to 500 nM.

For `O=C(NCc1nc(C(=O)NCCc2cccc(Cl)c2)cs1)OCc1ccc(OC(F)(F)F)cc1` [Entry 298, {4-[(trifluoromethyl)oxy]phenyl}methyl {[4-({[2-(3-chlorophenyl)ethyl]amino}carbonyl)-1,3-thiazol-2-yl]methyl}carbamate], the half-inhibitory concentration (IC50) was 500 to 2000 nM.

On to `O=C(COc1ccc(OC(F)(F)F)cc1)NCc1nc(C(=O)NCCc2cccc(C(F)(F)F)c2)co1` [Entry 181, 2-({[({4-[(trifluoromethyl)oxy]phenyl}oxy)acetyl]amino}methyl)-N-{2-[3-(trifluoromethyl)phenyl]ethyl}-1,3-oxazole-4-carboxamide], for which the IC50 lay in the range of 50 to 500 nM.
